Data from ChEMBL document CHEMBL1201862, “PubChem BioAssay data set” (2004).
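1) Cells in 96-well plates. 2) Compound, 48 h, 5 concentrations. 3) Linear interpolation between surrounding doses. 4) Unreached endpoint = highest concentration. GI50 marks 50% less growth.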 Calls of active or inactive are those of the source. Cut-off read from the data, not from the text of the source: active = GI50 up to about 1.1 µM and inactive = higher.

Experiments:
Assay in all cases: NCI-60 cell line screen, 48 h
HL-60 = test system: HL-60
SW-620 = test system: SW-620
SF-295 = test system: SF-295
HCT-116 = test system: HCT-116
IGROV-1 = test system: IGROV-1
A549 = test system: A549
T47D = test system: T47D
COLO 205 = test system: COLO 205
EKVX = test system: EKVX
HT-29 = test system: HT-29
NCI-H23 = test system: NCI-H23
SNB-19 = test system: SNB-19
UO-31 = test system: UO-31
SK-MEL-28 = test system: SK-MEL-28
HOP-92 = test system: HOP-92
CCRF-CEM = test system: CCRF-CEM
SNB-75 = test system: SNB-75
K562 = test system: K562
SF-539 = test system: SF-539
OVCAR-8 = test system: OVCAR-8

Measured: GI50

OC(C/C=N/Nc1ccccc1)(C(F)(F)Cl)C(F)(F)Cl
inactive: HL-60 > 10 µM | SW-620 > 10 µM | SF-295 > 10 µM | HCT-116 5.15 µM | IGROV-1 6.76 µM | A549 > 10 µM | T47D 7.53 µM | COLO 205 > 10 µM | EKVX > 10 µM | HT-29 > 10 µM | NCI-H23 7.23 µM | SNB-19 > 10 µM | UO-31 9.98 µM | SK-MEL-28 > 10 µM | HOP-92 7.35 µM | CCRF-CEM > 10 µM | SNB-75 9.91 µM | K562 9.46 µM | SF-539 > 10 µM | OVCAR-8 > 10 µM

Clc1ccccc1NN(Cc1ccccn1)c1ccccc1Cl
inactive: HL-60 18.5 µM | SW-620 17.7 µM | SF-295 30.1 µM | HCT-116 14 µM | IGROV-1 20.2 µM | A549 16.7 µM | T47D 27.4 µM | COLO 205 15.6 µM | EKVX 23 µM | HT-29 14.6 µM | NCI-H23 20 µM | SNB-19 27.9 µM | UO-31 20.4 µM | SK-MEL-28 20.5 µM | HOP-92 16.1 µM | SNB-75 20.1 µM | K562 17.3 µM | SF-539 18.7 µM | OVCAR-8 21.2 µM

COc1ccc(C(=O)O[C@@H]2CCN3CC[C@H](C)[C@H]23)cc1
inactive: HL-60 > 100 µM | SW-620 > 100 µM | SF-295 > 100 µM | HCT-116 > 100 µM | IGROV-1 > 100 µM | A549 > 100 µM | T47D > 100 µM | COLO 205 > 100 µM | EKVX > 100 µM | HT-29 > 100 µM | NCI-H23 > 100 µM | SNB-19 > 100 µM | UO-31 58.1 µM | SK-MEL-28 > 100 µM | HOP-92 > 100 µM | SNB-75 > 100 µM | SF-539 > 100 µM | OVCAR-8 > 100 µM

O=c1oc2ccc(Cl)cc2c2ccccc12
inactive: HL-60 > 100 µM | SW-620 > 100 µM | SF-295 34.4 µM | HCT-116 76.2 µM | IGROV-1 71.8 µM | A549 63.4 µM | T47D > 100 µM | COLO 205 65.8 µM | EKVX 10.8 µM | HT-29 > 100 µM | NCI-H23 23.8 µM | SNB-19 20 µM | SK-MEL-28 > 100 µM | HOP-92 23.2 µM | CCRF-CEM > 100 µM | SNB-75 39.2 µM | K562 > 100 µM | SF-539 > 100 µM | OVCAR-8 65 µM

CC(C)NC(=O)OCc1c(COC(=O)NC(C)C)n(C)c2c1ccc1ccsc12
inactive: HL-60 2.69 µM | SW-620 5.19 µM | SF-295 7.62 µM | HCT-116 9.84 µM | IGROV-1 12.5 µM | A549 9.98 µM | T47D 15.5 µM | COLO 205 12.9 µM | EKVX 17.5 µM | HT-29 12.1 µM | NCI-H23 5.28 µM | SNB-19 10.8 µM | UO-31 7.1 µM | SK-MEL-28 12.6 µM | HOP-92 10.1 µM | CCRF-CEM 2.25 µM | SNB-75 6.78 µM | K562 8.97 µM | OVCAR-8 9.59 µM
